# Laboratory results from patent US20230032101A1, “FIVE-MEMBERED HETEROCYCLIC OXOCARBOXYLIC ACID COMPOUND AND MEDICAL USE THEREOF” (Shanghai Institute of Materia Medica, Chinese Academy of …, priority 2019, published 2023).
# Key:
# Format in all cases: cell-based
# [1] = tested on: type I interferon pathway (ISG) in human THP1-Blue-ISG cells; test: Activation of type I interferon pathway (ISG) in human THP1-Blue-ISG cells (Quanti-Blue, OD650); details: 24 h, Compound OD650/Control OD650, ≥2 times considered valid; for fold induction at 10 µM / fold induction at 50 µM: Homo sapiens, THP1-Blue ISG, read-out: Fold Change
# Procedure: 20 μL of compound diluted with physiological saline was added to each well of a 96-well cell culture plate, the positive control compound was ADU-S100, and the solvent control group was added with 20 μL of physiological saline containing DMSO. THP1-Blue-ISG cells were counted, the cell concentration was adjusted to 5×10^5/mL, and 180 μL of cells were added to each well for incubation. Therefore, the final volume of each test well was 200 μL, the content of DMSO was 0.1%/0.5%, the test concentration of the compound was 10/50 μM, and the positive control compound was ADU-S100 at a final concentration of 10 μM, and incubated for 24 hours for detection.
# After 24 hours, 20 μL of the culture solution was took out from each well to a new 96-well plate, 180 μL of chromogenic solution Quanti-Blue was added, placed in a 37° C. incubator, and the OD650 value was measured after 0.5-2 hours. The experiment was repeated twice.
# The experimental results were used to evaluate the ability of compounds to induce the secretion of type I interferon pathway (ISG) by the Fold Change, which was calculated as follows:
# Fold Change=Compound OD650/Control OD650, wherein the results of ≥2 times were considered valid.
# [2] = tested on: type I interferon pathway (ISG) in human THP1-Blue-ISG cells; test: as above; details: 24 h, Compound OD650/Control OD650, ≥2 times considered valid, read-out: Fold Change
# [3] = tested on: type I interferon pathway in murine Raw-lucia cells; test: Activation of type I interferon pathway in murine Raw-lucia cells (QUANTI-Luc luminescence); details: Mus musculus, 24 h, Compound Luminescence/Control Luminescence, ≥2 times considered valid, read-out: Fold Change
# Procedure: Raw-lucia cells were counted, the cell concentration was adjusted to 5×10^5/mL, and 180 μL of cells were added to each well for incubation. 20 μL of compound diluted with physiological saline was added to each well of a 96-well cell culture plate after cells were adhered, the concentration of the compound was 50 μM/100 μM.
# After 24 hours, 20 μL of the culture medium was took out from each well to a new 96-well plate with bottom-transmitting, 50 μL of the luciferase detection reagent QUANTI-Luc™ was added, and the […] was measured immediately (in the dark). The experiment was repeated twice.
smiles,measurement,setting,value
"Nc1ncnc2c1ncn2[C@@H]1O[C@@H]2COP(=O)([S-])O[C@@H]3[C@H](O)[C@@H](COP([O-])(=S)O[C@H]2[C@H]1O)O[C@H]3n1cnc2c(N)ncnc21.[Na+].[Na+] (stereo partly drawn) [ADU-S100, reference compound]",Fold Change,[1]; 10 μM,12.45@10 μM
"O=C(O)CC(=O)c1cc(-c2c[nH]c3ccccc23)cs1 [Example I-1, 3-(4-(1H-indol-3-yl)thiophen-2-yl)-3-oxopropionic Acid]",fold induction at 10 µM,[1]; 10 μM,14.3
"O=C(O)CC(=O)c1cc(-c2c[nH]c3cc(F)ccc23)cs1 [Example I-2, 3-(4-(6-fluoro-1H-indol-3-yl)thiophen-2-yl)-3-oxopropionic acid]",fold induction at 10 µM,[1]; 10 μM,11
"O=C(O)CC(=O)c1cc(-c2c[nH]c3c(F)cccc23)cs1 [Example I-3, 3-(4-(7-fluoro-1H-indol-3-yl)thiophen-2-yl)-3-oxopropionic acid]",fold induction at 10 µM,[1]; 10 μM,9.82
"O=C(O)CC(=O)c1cc(-c2c[nH]c3ccc(F)cc23)cs1 [Example I-4, 3-(4-(5-fluoro-1H-indol-3-yl)thiophen-2-yl)-3-oxopropionic acid]",fold induction at 10 µM,[1]; 10 μM,9.95
"O=C(O)CCCC(=O)c1cc(-c2c[nH]c3ccccc23)cs1 [Example I-13, 5-(4-(1H-indol-3-yl)thiophen-2-yl)-5-oxopentanoic Acid]",fold induction at 30 µM,[2],12.6
"O=C(O)CCCC(=O)c1cc(-c2c[nH]c3c(F)cccc23)cs1 [Example I-14, 5-(4-(7-fluoro-1H-indol-3-yl)thiophen-2-yl)-5-oxopentanoic Acid]",fold induction at 50 µM,[1],1.96
"COC(=O)CC(=O)c1cc(-c2c[nH]c3ccccc23)cs1 [Example I-16, methyl 3-(4-(1H-indol-3-yl)thiophen-2-yl)-3-oxopropionate]",fold induction at 10 µM,[1]; 10 μM,14.3
"COC(=O)CC(=O)c1cc(-c2c[nH]c3cc(F)ccc23)cs1 [Example I-17, methyl 3-(4-(6-fluoro-1H-indol-3-yl)thiophen-2-yl)-3-oxopropionate]",fold induction at 10 µM,[1]; 10 μM,11
"COC(=O)CC(=O)c1cc(-c2c[nH]c3c(F)cccc23)cs1 [Example I-18, methyl 3-(4-(7-fluoro-1H-indol-3-yl)thiophen-2-yl)-3-oxopropanoate]",fold induction at 10 µM,[1]; 10 μM,9.8
"COC(=O)CC(=O)c1cc(-c2c[nH]c3ccc(F)cc23)cs1 [Example I-19, methyl 3-(4-(5-fluoro-1H-indol-3-yl)thiophen-2-yl)-3-oxopropionate]",fold induction at 10 µM,[1]; 10 μM,10
"COC(=O)CC(=O)c1cc(-c2coc3ccccc23)cs1 [Example I-26, methyl 3-(4-(benzofuran-3-yl)thiophen-2-yl)-3-oxopropanoate]",fold induction at 20 µM,[2]; 20 μM,14.6
"COC(=O)CC(=O)c1cc(-c2coc3ccccc23)co1 [Example I-31, methyl 3-(4-(benzofuran-3-yl)furan-2-yl)-3-oxopropanoate]",fold induction at 30 µM,[2],43.2
"COC(=O)CC(=O)c1cc(-c2ccc(OC)c(OC)c2)co1 [Example I-34, methyl 3-(4-(3,4-dimethoxyphenyl)furan-2-yl)-3-oxopropanoate]",fold induction at 30 µM,[2],23.7
"COC(=O)CC(=O)c1cc(-c2ccc3ccoc3c2)co1 [Example I-36, methyl 3-(4-(benzofuran-6-yl)furan-2-yl)-3-oxopropanoate]",fold induction at 30 µM,[2],29.7
"COC(=O)CC(=O)c1cc(-c2c[nH]c3cc(F)ccc23)co1 [Example I-37, methyl 3-(4-(6-fluoro-1H-indol-3-yl)furan-2-yl)-3-oxopropanoate]",fold induction at 10 µM,[1]; 10 μM,71.5
"COC(=O)CC(=O)c1cc(-c2c[nH]c3c(F)cccc23)co1 [Example I-38, methyl 3-(4-(7-fluoro-1H-indol-3-yl)furan-2-yl)-3-oxopropanoate]",fold induction at 10 µM,[1]; 10 μM,77.2
"COC(=O)CC(=O)c1cc(-c2c[nH]c3cccc(F)c23)co1 [Example I-39, methyl 3-(4-(4-fluoro-1H-indol-3-yl)furan-2-yl)-3-oxopropanoate]",fold induction at 10 µM,[1]; 10 μM,59.5
"COC(=O)CC(=O)c1cc(-c2c[nH]c3ccc(F)cc23)co1 [Example I-40, methyl 3-(4-(5-fluoro-1H-indol-3-yl)furan-2-yl)-3-oxopropanoate]",fold induction at 10 µM,[1]; 10 μM,53.7
"COC(=O)CC(=O)c1cc(-c2c[nH]c3ccc(OC)cc23)cs1 [Example I-42, methyl 3-(4-(5-methoxy-1H-indol-3-yl)thiophen-2-yl)-3-oxopropanoate]",fold induction at 10 µM,[1]; 10 μM,61.8
"COC(=O)CC(=O)c1cc(-c2c[nH]c3ccc(OC)cc23)co1 [Example I-43, methyl 3-(4-(5-methoxy-1H-indol-3-yl)furan-2-yl)-3-oxopropanoate]",fold induction at 10 µM,[1]; 10 μM,23.3
"O=C(O)CCC(=O)c1cc(-c2csc3ccccc23)cs1 [I′-4, 4-(4-(benzo[b]thiophen-3-yl)thiophen-2-yl)-4-oxobutyric Acid]",fold induction at 50 µM,[1],18.4
"O=C(O)CCC(=O)c1cc(-c2cccc3sccc23)cs1 [I′-10, 4-(4-(benzo[b]thiophen-4-yl)thiophen-2-yl)-4-oxobutyric Acid]",fold induction at 50 µM,[1],15.1
"O=C(O)CCC(=O)c1cc(-c2coc3ccccc23)cs1 [I′-14, 4-(4-(benzofuran-3-yl)thiophen-2-yl)-4-oxobutyric Acid]",fold induction at 100 µM,[3],18.1
same,fold induction at 25 µM,[2],20.7
"O=C(O)CCC(=O)c1cc(-c2coc3ccccc23)co1 [I′-17, 4-(4-(benzofuran-3-yl)furan-2-yl)-4-oxobutyric acid]",fold induction at 50 µM,[3],12.5
same,fold induction at 25 µM,[2],21.6
"O=C(O)CCC(=O)c1cc(-c2c[nH]c3ccccc23)co1 [I′-30, 4-(4-(1H-indol-3-yl)furan-2-yl)-4-oxobutyric Acid]",fold induction at 100 µM,[3],8.13
same,fold induction at 12.5 µM,[2]; 12.5 μM,22.7
"CC(CC(=O)c1cc(-c2coc3ccccc23)co1)C(=O)O (stereo not drawn) [I′-37, 4-(4-(benzofuran-3-yl)furan-2-yl)-2-methyl-4-oxobutyric Acid]",fold induction at 50 µM,[3],3.79
"O=C(O)CCC(=O)c1cc(-c2c[nH]c3cc(F)ccc23)co1 [I′-38, 4-(4-(6-fluoro-1H-indol-3-yl)furan-2-yl)-4-oxobutyric Acid]",fold induction at 50 µM,[3],7.1
same,fold induction at 10 µM,[1]; 10 μM,7.15
"O=C(O)CCC(=O)c1cc(-c2c[nH]c3cc(F)ccc23)cs1 [I′-46, 4-(4-(6-fluoro-1H-indol-3-yl)thiophen-2-yl)-4-oxobutyric Acid]",fold induction at 100 µM,[3],31.4
same,fold induction at 10 µM,[1]; 10 μM,11.3
"O=C(O)CCC(=O)c1cc(-c2c[nH]c3c(F)cccc23)cs1 [I′-49, 4-(4-(7-fluoro-1H-indol-3-yl)thiophen-2-yl)-4-oxobutyric Acid]",fold induction at 50 µM,[3],36.2
same,fold induction at 10 µM,[1]; 10 μM,10.3
"COC(=O)CCC(=O)c1cc(-c2c[nH]c3c(F)cccc23)cs1 [I′-50, Methyl 4-(4-(7-fluoro-1H-indol-3-yl)thiophen-2-yl)-4-oxobutyrate]",fold induction at 10 µM,[1]; 10 μM,68.1
"O=C(O)CCC(=O)c1cc(-c2c[nH]c3cccc(F)c23)cs1 [I′-51, 4-(4-(4-fluoro-1H-indol-3-yl)thiophen-2-yl)-4-oxobutyric Acid]",fold induction at 100 µM,[3],9.75
same,fold induction at 10 µM,[1]; 10 μM,5.27
"O=C(O)CCC(=O)c1cc(-c2coc3ccc(F)cc23)cs1 [I′-54, 4-(4-(5-fluorobenzofuran-3-yl)thiophen-2-yl)-4-oxobutyric Acid]",fold induction at 100 µM,[3],4.5
"O=C(O)CCC(=O)c1cc(-c2c[nH]c3c(F)cccc23)co1 [I′-58, 4-(4-(7-fluoro-1H-indol-3-yl)furan-2-yl)-4-oxobutyric Acid]",fold induction at 100 µM,[3],14.2
same,fold induction at 10 µM,[1]; 10 μM,4.14
